In PMC6981960 (2019):
Each block holds one molecule with its values, some of them ahead of it.

Tests used:
[1] = tested on: NP7 (DNA, aptamer) ATGCGGATCCCGCGCGGCCGGCCAGTGCGCGAAGCTTGCGC; assay: AuNP colorimetric aggregation assay; conditions: NaCl added to aggregate AuNPs (10 μL, printed 850 nM), aptamer 4 μM
[2] = tested on: NP7 (DNA, aptamer) ATGCGGATCCCGCGCGGCCGGCCAGTGCGCGAAGCTTGCGC; assay: circular dichroism; conditions: 137 mM NaCl, 2.7 mM KCl; PBS pH 7.4, 25 °C; aptamer 2 μM; 4-n-NP 0, 100, 1000 nM; qualitative change near 250 nm

binding ([1]; bisphenol A same amount as nonylphenol (200 nM stated)): weak
Compound: CC(C)(c1ccc(O)cc1)c1ccc(O)cc1

binding ([1]; penicillin G same amount as nonylphenol (200 nM stated)): no
Compound: CC1(C)S[C@@H]2[C@H](NC(=O)Cc3ccccc3)C(=O)N2[C@H]1C(=O)O

binding ([1]; DEHP same amount as nonylphenol (200 nM stated)): no
Compound: CCCCC(CC)COC(=O)c1ccccc1C(=O)OCC(CC)CCCC (centres unmarked)

binding [2]: yes
Compound: CCCCCCCCCc1ccc(O)cc1

binding ([1]; phenol same amount as nonylphenol (200 nM stated)): no
Compound: Oc1ccccc1
